“And” between values parts separate entries of the source, which are not always exact repeats. Equal entries are not always repeated.
What was measured:
[1] = system: TGF beta1 mRNA; assay: TGF beta1 mRNA expression (qRT-PCR) in rabbit ear hypertrophic scar model; type: in vivo, New Zealand white rabbits; conditions: 1% w/w, 100 μl intradermal on days 15 and 29, harvest Day 43
Description: The objective of this study was to examine the effect of test compounds on wound healing and TGF beta expression after dermal injury in a rabbit ear hypertrophic scar model.
In New Zealand white rabbits, maintained under a surgical plane of anesthesia, trauma stimulation of the skin on the ventral surface of both ears is initiated on Day 1. Trauma sites are evaluated on Days 8, 15, 22, 29, 36, and 43. On days 15 and 29, each site is dosed with test compounds (e.g., 1% w/w, 100 μl) by intradermal or intralesional injections.
Mammals are euthanized on Day 43, and the trauma sites are harvested and frozen for TGF beta analysis using quantitative RT-PCR (qRT-PCR) (e.g., A. K. Johnson et al., Dev. Comp. Immunol., 2006; 30(5): 473-84). TGF beta1 mRNA expression levels in treated trauma samples are compared to the expression level in the untreated trauma sample.

[2] = system: subretinal fibrosis; assay: Laser-induced subretinal fibrosis model in mice; type: in vivo, C57BL/6 mice; conditions: for effect on subretinal fibrosis: approximately 1 μL intravitreally on day of laser application, Days 15 and 35; for neovascular lesion sizes: approximately 1 μL of 1% (w/w) intravitreally on day of laser application
Description: The anti-fibrotic effects of test compounds were also evaluated in a subretinal fibrosis model in C57BL/6 mice. Three to five lesions were generated in the Bruch's membrane of the study eye using laser photocoagulation (75-μm spot size, 0.1-s duration, 90 mW, OcuLight TX 532 nm). Subretinal fibrosis started to form 5-7 days post laser application. Test compounds having certain spectrum of multikinase inhibition activities or vehicle were intravitreally injected on the day of laser application. The dosing concentration of the test compounds was 1% (w/w) of nintedanib and lenvatinib. The control groups were vehicle and mouse VEGF164 antibody. There were 12 mice per treatment group. Approximately, 1 μL each of the test compounds, vehicle, or positive control was injected intravitreally to the right eye of each animal. On Days 15 and 35, the eyes were examined with fluorescein angiography, followed by enucleation. Immunostaining on the dissected choroid was used to assess subretinal fibrosis (e.g., collagen 1, isolectin B4 and/or DAPI). The primary antibodies used were fluorescence conjugated isolectin B4 (FITC-conjugated isolectin B4) and anti-collagen type I antibody. […] Thus, these compounds can be used to treat subretinal fibrosis associated with proliferative retinal diseases.

[3] = system: full-thickness excision wounds; assay: Histology of full-thickness excision wounds in Yucatan minipigs (fibroplasia, neovascularization); type: in vivo; conditions: for Neovascularization; dermis, average score / Fibroplasia; dermis, average score: Yucatan minipig wound sites after two doses, Day 59, scale 1 (minimal) to 5 (severe); for Neovascularization; dermis, average score: untreated 2.33; for Fibroplasia; dermis, average score: untreated 3.33
Excerpt: (§1) In this experiment, multiple full-thickness excision wounds were made to the dorsum of Yucatan minipigs, and the wound sites were allowed to be re-epithelialized adequately. At four weeks post-wound, the wound sites had normal to pink vascularity and had pliability. Epidermal hyperplasia was observed, as expected for regenerative responses in the full-thickness wounds.
(§2) On Day 28 post-wound, a dose (e.g., 1%) of axitinib, nintedanib, riociguat, sorafenib, sunitinib, and/or lenvatinib was administered into the dermal tissue at or around the wound sites, once every two weeks on two occasions. One wound site was left untreated as the control for each pig. Please note that the particular parameters in this example are only for illustration. One skilled in the art would appreciate that the dosages, administration methods, treatment regimen, and the administration sites may be varied to achieve similar results.
On Day 59 post wound, the minipigs were sacrificed and dermal tissues were collected for qualitative and quantitative evaluation using hematoxylin and eosin, and Mason's Trichrome staining. Dermal fibroplasia was characterized by increased numbers of fibroblasts in the dermis suspended in variable amounts of collagen in wounds.

[4] = system: TGF-beta 1; assay: Dermal TGFb1 levels (ELISA) after linear incisional wounds in minipigs; type: in vivo, Gottingen Minipigs; conditions: approximately 16 mg intradermally once per incisional wound, biopsies days 4, 7, 9 post-dosing
Excerpt: The purpose of this study was to evaluate the topical effects of axitinib, nintedanib, sorafenib and lenvatinib when administered via intradermal injection to the dorsal skin along linear incisions of minipigs. Linear incisional wound was made to elicit inflammatory and wound healing process in the skin. After dosing, mammals were observed post dose for 9 days to assess the levels of TGFb1 expressions in the skin.
Three male Gottingen Minipigs® dosed once via intradermal injection along the edges of each of the linear incision wound sites for each mammal (wounds on the dorsum, perpendicular to the spine, approximately 3 cm in length and 3 cm distance from the spine). Each incisional wound received approximately 16 mg of the test compound intradermally once along both sides of the linear wound.
On days of 4, 7, and 9 post-dosing, one 4 mm dermal punch biopsy was collected for each incisional wound and processed for TGF-beta 1 analysis with ELISA, using a commercial kit (e.g., the kit from Thermo Fisher or other vendors).

[5] = system: TGF-β1 mRNA; assay: TGF-β1 mRNA expression (qRT-PCR) in Yucatan pig skin wound sites; type: in vivo, Yucatan minipigs; conditions: Yucatan pig skin wound sites after treatments; for TGF-β1 mRNA Expression Fold Relative to Untreated Unwounded Control: individual animals 7369, 7370, 7371, duplicate sets 1 and 2, beta actin reference gene
Excerpt: as §1, §2
In addition, total mRNA was isolated from skin biopsies of the treated wound sites and the untreated unwounded sites of the pigs. The mRNA samples were used to prepare cDNA and analyzed via qRT-PCR. The TGF-β1 expression levels were assessed using beta actin as a reference gene.

[6] = system: suture-induced ocular fibrosis; assay: Rabbit corneal suture-induced ocular fibrosis model; type: in vivo, rabbits; conditions: 0.3% w/v eyedrops 35 uL three times daily for 10 days
Excerpt: In order to investigate the anti-fibrotic effect of test compounds following wounding in the eye, a suture-induced ocular fibrosis model was used. Suture was placed intrastromally under a microscope in the cornea of rabbits. In each eye, one 9.0 silk suture was placed, in a vertical position, temporal to the corneal center and a second suture was placed nasal to the corneal center. Each suture had two stromal incursions approximately 2 mm from the limbus. Test compounds having certain spectrum of multikinase inhibition activities and/or vehicle were topically instilled (35 uL/eye) in the eyes three times daily for 10 days the day following surgery. The treatment groups include vehicle, nintedanib (0.3%, w/v), pirfenidone (1%, w/v), riociguat (0.3%, w/v), sorafenib (0.3%, w/v) and lenvatinib (0.3%, w/v). Six left eyes were used per treatment group.
The animals were sacrificed on Day 11 and the eyes enucleated and dissected for histopathological evaluation.

Which “mean folds of TGF beta mRNA expression versus untreated wound sample” value (“mean folds” for short) [1] does the source give for `COc1cc2nccc(Oc3ccc(NC(=O)NC4CC4)c(Cl)c3)c2cc1C(N)=O` [lenvatinib] here?
The value was “lower than the expression level in the untreated wound sample”.

What about the “effect on subretinal fibrosis” value [2] of the same compound?
The value was “therapeutic effects in the treatment of subretinal fibrosis”.

And the “neovascular lesion sizes” value [2]?
The value was “marked reductions in neovascular lesion sizes”.

And the “Neovascularization; dermis, average score” value (shortened to “Neovascularization; dermis”) [3]?
The value was “(2.33)”.

And the “Fibroplasia; dermis, average score” value [3]?
The value was “(3.00)”.

What about the “suppression of dermal TGF beta 1 expression over time” value (from here on “suppression … over time”) [4] of the same compound?
The value was “very effective in suppressing the expression of TGF beta 1”.

And the “TGF-β1 mRNA Expression Fold Relative to Untreated Unwounded Control” value [5]?
Its value is 2.27 fold and 0.62 fold and 0.89 fold and 0.38 fold and 0.69 fold and 2.02 fold.

What about the “alpha SMA (smooth muscle actin) staining by immunohistochemistry” value [6] of the same compound?
Its value is “significantly reduced alpha SMA (smooth muscle actin) staining”.

And the “areas of neovascularization on the corneal surface” value (“areas of neovascularization” below) [6]?
The value was “efficacious in reducing the areas of neovascularization”.

And the “fibroplasia and/or collagen density by histological staining” value [6]?
The value was “significantly reduced fibroplasia and/or collagen density”.

For `COC(=O)c1ccc2c(c1)NC(=O)/C2=C(\Nc1ccc(N(C)C(=O)CN2CCN(C)CC2)cc1)c1ccccc1` [nintedanib], which “mean folds” value [1] is on record?
The value was “lower than the expression level in the untreated wound sample”.

What about the “effect on subretinal fibrosis” value [2] of the same compound?
The value was “therapeutic effects in the treatment of subretinal fibrosis”.

What about the “neovascular lesion sizes” value [2] of the same compound?
The value was “marked reductions in neovascular lesion sizes”.

What about the “Neovascularization; dermis” value [3] of the same compound?
The value was “(1.67)”.

What about the “Fibroplasia; dermis, average score” value [3] of the same compound?
The value was “(2.33)”.

What about the “neovascularization and dermal fibroplasia relative to the untreated wound” value ([3]; Yucatan minipig, two biweekly treatments) of the same compound?
Its value is “noticeably reduced neovascularization with a corresponding reduced dermal fibroplasia”.

What about the “suppression … over time” value [4] of the same compound?
The value was “very effective in suppressing the expression of TGF beta 1”.

And the “reduction of TGF-β1 mRNA expression levels at treated wounds” value [5]?
Its value is “most effective”.

What about the “TGF-β1 mRNA Expression Fold Relative to Untreated Unwounded Control” value [5] of the same compound?
Its value is 0.70 fold and 0.66 fold and 0.55 fold and 0.56 fold and 0.63 fold and 0.87 fold.

And the “alpha SMA (smooth muscle actin) staining by immunohistochemistry” value [6]?
The value was “significantly reduced alpha SMA (smooth muscle actin) staining”.

And the “areas of neovascularization” value [6]?
The value was “efficacious in reducing the areas of neovascularization”.

And the “fibroplasia and/or collagen density by histological staining” value [6]?
Its value is “significantly reduced fibroplasia and/or collagen density”.

Which “mean folds” value [1] does the source give for `CNC(=O)c1cc(Oc2ccc(NC(=O)Nc3ccc(Cl)c(C(F)(F)F)c3)cc2)ccn1` [sorafenib] here?
The value was “lower than the expression level in the untreated wound sample”.

What about the “Neovascularization; dermis” value [3] of the same compound?
The value was “(2.33)”.

And the “Fibroplasia; dermis, average score” value [3]?
Its value is “(3.00)”.

What about the “suppression … over time” value [4] of the same compound?
The value was “not as effective”.

And the “reduction of TGF-β1 mRNA expression levels at treated wounds” value [5]?
The value was “most effective”.

And the “TGF-β1 mRNA Expression Fold Relative to Untreated Unwounded Control” value [5]?
The value was 0.84 fold and 0.60 fold and 0.53 fold and 0.43 fold and 0.55 fold and 0.89 fold.

What about the “areas of neovascularization” value [6] of the same compound?
The value was “inhibition of corneal neovascularization”.

Source: patent US12502391B2, “Multi-kinase inhibitors of VEGF and TGF beta and uses thereof” (AIVIVA BIOPHARMA, INC., priority 2018, dated 2025)
